Read-outs that look alike come from different tables or passages of the source.
Tested on: HT-29 cells
Test: Cellular RIP1 inhibitory activity: necroptosis of HT-29 cells induced by TNF-α/SMAC mimetic/zVAD-FMK, CellTiter-Glo viability
Assay type: cell-based
Settings: Homo sapiens, read-out: EC50 (Cell activity; Necrosis or Necroptosis Inhibitory Activity)
Summary of the method: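 HT-29 cells (~5,000/well) in FBS-free McCoy's 5A were driven into necroptosis with TNF-α (10 ng/ml), SMAC mimetic (6 μM) and zVAD-FMK (10 μM) alongside 10-point 1:3 compound dilutions for 20 h at 37 °C. Viability measured by CellTiter-Glo luminescence; geometric mean EC50 from duplicate dose-responses.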

[1] = HT-29 cells, TNF-α 10 ng/ml, SMAC mimetic 6 μM, zVAD-FMK 10 μM, 20 hours, geometric mean, 10 points, duplicates

SMILES	EC50 (HT-29, 20 h)	EC50 [1]
CCNC(=O)c1ccnc(N2CCN(C(=O)N3N=CC[C@H]3c3cc(F)cc(F)c3)CC2)n1 [Compound 35, (S)-2-(4-(5-(3,5-difluorophenyl)-4,5-dihydro-1H-pyrazole-1-carbonyl)piperazin-1-yl)-N-ethylpyrimidine-4-carboxamide]	0.1 to 100 nM	–
NC(=O)c1ccnc(N2CCN(C(=O)N3N=CC[C@H]3c3cc(F)cc(F)c3)CC2)n1 [Compound 38, 2-(4-(5-(3,5-difluorophenyl)-4,5-dihydro-1H-pyrazole-1-carbonyl)piperazin-1-yl)pyrimidine-4-carboxamide]	–	0.1 to 100 nM
COC1CN(C(=O)c2nc(N3CCN(C(=O)N4N=CC[C@H]4c4cncc(F)c4)CC3)ncc2Cl)C1 [Compound 64, (S)-(5-chloro-2-(4-(5-(5-fluoropyridin-3-yl)-4,5-dihydro-1H-pyrazole-1-carbonyl)piperazin-1-yl)pyrimidin-4-yl)(3-methoxyazetidin-1-yl)methanone]	–	100 to 1000 nM
O=C(c1nc(N2CCN(C(=O)N3N=CC[C@H]3c3cc(F)cc(F)c3)CC2)ncc1F)N1CC2(COC2)C1 [Compound 14, (5-(3,5-difluorophenyl)-4,5-dihydro-1H-pyrazol-1-yl)(4-(5-fluoro-4-(2-oxa-6-azaspiro[3.3]heptane-6-carbonyl)pyrimidin-2-yl)piperazin-1-yl)methanone]	–	0.1 to 100 nM
NC(=O)c1cncc(N2CCN(C(=O)N3N=CC[C@H]3c3cc(F)cc(F)c3)CC2)n1 [Compound 39, (S)-6-(4-(5-(3,5-difluorophenyl)-4,5-dihydro-1H-pyrazole-1-carbonyl)piperazin-1-yl)pyrazine-2-carboxamide]	–	100 to 1000 nM
